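Method: 48-hour compound exposure of cells in 96-well plates, five concentrations, linear interpolation of endpoints. Here, GI50 denotes the concentration required for 50% inhibition of growth. At the TGI there is no net growth.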 Where a SMILES comes first, the peptide text is derived from it. Bridges are numbered along the chain shown (N, C = ends). Where only a bound is given, the exact number is not on record here.

What all share (experiment): NCI tumour cell line growth inhibition, 48 h
In assay [1] the test system is CCRF-CEM leukemia.
The subject of assay [2] is HCT-116 colon.
Assay [3] deals with HL-60(TB) leukemia.
Assay [4] relates to HOP-62 NSCLC.
Assay [5] has as its system HT29 colon.
For assay [6], the system named is SK-OV-3 ovarian.
The subject of assay [7] is SNB-75 CNS.
In assay [8] the test system is SR leukemia.
In assay [9] the test system is SW-620 colon.
Assay [10] relates to K-562 leukemia.

As for `O=C1c2c(c3c4ccccc4n(CCCCCCN4CCOCC4)c3c3[nH]c4ccccc4c23)C(=O)N1O`, the GI50 is 2.25 µM in assay [1]; 1.85 µM in [2]; 2.49 µM in [3]; 18.2 µM in assay [4]; 3.39 µM in assay [5]; 20.6 µM in assay [6]. Further, the figures for the GI50 in assay [7], in assay [8] and in assay [9] were 1.36 µM, 0.291 µM and 1.68 µM, respectively. Further, the TGI in assay [1] is 8.35 µM; in [2], 3.86 µM; in [3], 8.22 µM; in [4], 55.2 µM; in [5], 18.1 µM; in [6], 43.2 µM. Moreover, the TGI in [7] turned out to be 7.57 µM; in assay [8], 1.08 µM; in [9], 3.93 µM.

Take `CCCCCCCCC1C(C)c2c([nH]c3ccccc23)C2C(=O)N(c3ccccc3)C(=O)C21` (stereo not drawn): the TGI was 7.09 µM in [1]; 12.5 µM in assay [2]; 13.9 µM in [3]; 38.3 µM in assay [4]; 19.1 µM in [5]; 14.7 µM in assay [10]. Further, the TGI in [6] came to 51.1 µM; in assay [7] it was 39.9 µM; in assay [9] it was 41.5 µM.

On to `NS(=O)(=O)c1ccc(-n2nc(-c3ccccc3)cc2-c2cc(O)ccc2O)cc1`, for which the GI50 is more than 100 µM in [1]; 40.8 µM in assay [2]; 90.8 µM in assay [4]; 74.8 µM in assay [5]; 40 µM in assay [10]; more than 100 µM in assay [9]. Besides, the TGI in [1], in assay [2], in assay [4], in assay [5], in [10] and in assay [9] was more than 100 µM in each case.

Consider `CCC(C)C1NC(=O)C(CC(C)C)NC(=O)C(C(C)C)NC(=O)C2CSSCC(NC1=O)C(=O)N2` (stereo not drawn) (cyclo(CCVLI); disulfide 1-2; configuration not given here), for which the TGI came out at 0.187 µM in assay [2]; 0.339 µM in [3]; 0.554 µM in assay [4]; 0.356 µM in assay [5]; 0.238 µM in [7].

With `CSC(=NC(=O)c1ccccc1)SCCSC(=NC(=O)c1ccccc1)SC`, the TGI in assay [1], in assay [2], in assay [3], in [4], in assay [5] and in assay [10] was more than 100 µM each time. Further, the TGI in assay [7] and in assay [9] was more than 100 µM each time.

As for `Cc1cc(C(=O)CC(Cl)=C(Cl)Cl)c(Cl)cc1Cl`, the GI50 in assay [1] is 3.54 µM; in assay [2] it was 19.1 µM; in assay [4] it was 21.2 µM; in assay [5], 34.6 µM; in [10] it was 20.7 µM; in [6], 49.8 µM. For the same compound, the GI50 in [7] is 34.8 µM; in assay [9], 21.7 µM. Moreover, the TGI was 27.3 µM in [1]; 33.2 µM in assay [2]; 44.1 µM in assay [4]; more than 100 µM in [5]; 47.6 µM in assay [10]; more than 100 µM in assay [6]. Further, the TGI in [7] was more than 100 µM; in assay [9] it was 52.3 µM.

On to `COc1ccc2[nH]cc(C3(c4c[nH]c5ccc(OC)cc45)C(=O)Nc4ccc(Cl)cc43)c2c1`, for which the GI50 in [1] was 3.67 µM; in [2] it was 3.63 µM; in [4] it was 5.18 µM; in assay [10], 3.69 µM; in assay [6], 5.42 µM; in [7], 1.9 µM. Besides, the GI50 in assay [9] is 3.89 µM. Also, the TGI in assay [1] was more than 100 µM; in assay [2], 10.7 µM; in [4] it was 21.3 µM; in assay [10] it was more than 100 µM; in [6] it was 23.4 µM; in assay [7] it was 14 µM. The compound also registered a TGI in assay [9] of 49.4 µM.

As for `CCCCNP1(NCCCC)=NP(NCCCC)(NCCCC)=NP(NCCCC)(NCCCC)=NP(NCCCC)(NCCCC)=N1`, the GI50 in assay [1] is 0.313 µM; in assay [2] it was 0.209 µM; in assay [3], 0.098 µM; in assay [4], 1.85 µM; in assay [5] it was 0.213 µM; in [10], 0.103 µM. In addition, the GI50 is 1.07 µM in [6], 3.13 µM in assay [7] and 0.861 µM in [9]. Further, the TGI in assay [1] was 12.3 µM; in [2], 0.81 µM; in assay [3] it was 0.888 µM; in [4], 6.25 µM; in assay [5], 17.7 µM; in assay [10], 3.83 µM. Besides, the TGI in assay [6] worked out at 9.75 µM; in assay [7], 15.8 µM; in [9], 15.9 µM.

On to `C=C1C(=O)O[C@H]2[C@H]1CC/C(CNC(=O)C(C)c1ccc(CC(C)C)cc1)=C\CC[C@@]1(C)O[C@@H]21` (stereo partly drawn), for which the GI50 in assay [1] was 0.551 µM; in assay [2] it was 1.32 µM; in assay [4], 3.07 µM; in assay [5] it was 1.79 µM; in assay [10], 2.29 µM; in assay [6], 12.3 µM. Also, the GI50 in [7] is 1.34 µM; in assay [9], 1.69 µM. Moreover, the TGI in [1] was 7.49 µM; in assay [2], 2.92 µM; in [4], 12.2 µM; in assay [5], 3.66 µM; in [10], 10.4 µM; in assay [6] it was 24.8 µM. In addition, the values for the TGI in [7] and in assay [9] were 2.63 µM and 3.55 µM, respectively.

`CSc1nc(SC)c2c(C)c(Br)[nH]c2n1`: the TGI in [1], in assay [2], in assay [3], in assay [4], in [5] and in [6] was more than 100 µM in each case. For the same compound, the TGI in assay [7], in assay [8] and in [9] was more than 100 µM throughout.

In the case of `CC(/C=C1\CCC(CN(C)C)C1=O)c1cccc(Br)c1` (stereo not drawn), the TGI was found to be 11.4 µM in assay [1]; 31 µM in assay [2]; 10.8 µM in [3]; 42.2 µM in assay [4]; 20.7 µM in assay [5]; 9.43 µM in [10]. For the same compound, the TGI in [6] is more than 100 µM; in assay [9], 26.2 µM.

These data come from PubChem BioAssay (NCI).
